For experiment [1], the target named is Phospholipase A2 (Homo sapiens) (UniProt P04054). The experiment in a line: Inhibition of PLA2 at 50 ug/mL.
Another experiment concerns K562. In words: Cytotoxicity against human K562 cells. In kind it is functional. To be noted: read-out: LC50 (the source's name).

Structures are written as SMILES. Values after ≈ are worked out from the molar mass of the structure shown.

Chain of Phospholipase A2 (Homo sapiens) (P04054 23-148 limits assumed): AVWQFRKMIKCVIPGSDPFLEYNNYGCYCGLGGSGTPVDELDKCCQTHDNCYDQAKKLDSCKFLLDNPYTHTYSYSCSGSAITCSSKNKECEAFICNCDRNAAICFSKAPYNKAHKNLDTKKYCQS

The term inhibition denotes the relative decrease from the control value, in per cent. The low end stands for a response near the control, the high end for a response far below the control. Regarding `Cc1ccc(O)cc1CC[C@@H]1[C@H](O)CC[C@]2(C)[C@@H]([C@H](C)CCCC(C)C)CC[C@@H]12` [ASTROGORGIADIOL], in experiment [1], the inhibition was 47%. In addition, the CC50 with K562 is 12.1 µg/mL (≈ 30.2 µM). `Cc1ccc(O)cc1CC[C@@H]1[C@H](O)CC[C@]2(C)[C@@H]([C@H](C)/C=C/C(C)C(C)C)CC[C@@H]12` (stereo partly drawn) [CALICOFEROL F]: in the experiment with K562, the CC50 stood at 3.2 µg/mL (≈ 7.75 µM). Regarding `CC(C)=CCC[C@@H](C)[C@H]1CC[C@H]2[C@H](CCc3cc(O)ccc3C)[C@H](O)CC[C@]12C` [CALICOFEROL G], the inhibition in experiment [1] stood at 55%. In addition, in the experiment on K562, the CC50 turned out to be 2.1 µg/mL (≈ 5.27 µM). Consider `Cc1ccc(O)cc1CC[C@@H]1[C@H](O)CC[C@]2(C)[C@@H]([C@H](C)/C=C/C(C)C)CC[C@@H]12` [CALICOFEROL H], for which the inhibition in experiment [1] is 67%. The CC50 with K562 is 10.7 µg/mL (≈ 27.8 µM). For `Cc1ccc(O)cc1CC[C@@H]1C(=O)CC[C@]2(C)[C@@H]([C@H](C)CCCC(C)C)[C@@H](O)C[C@@H]12` [CALICOFEROL I], the CC50 in the experiment with K562 was determined as 9.6 µg/mL (≈ 23.2 µM).

The record behind these values is ChEMBL document CHEMBL1151318, “New secosteroids from a gorgonian of the genus Muricella” (1998).
